For data set [1], the system named is skin tissues (Episkin / Mutz3-LC co-culture). The data set can be described thus: cytokine measurements (27 cytokines) of skin tissues exposed to known sensitizing chemicals, analysed by PCA. It is filed as cell-based, human. The note with it: several chemical concentrations, multiple replicates, comparison IE vs SA. The method, then:
We have taken cytokine measurements of skin tissues that were exposed to known sensitizing chemicals. […] Principal component analysis (PCA) was used to reduce the high dimensional data into a lower dimension so that the differences in response from each chemical could be visualized.
Multiple cytokines and growth factors were assessed using the Biorad Bioplex Analyzer. 1 ml supernatants were collected for undifferentiated Mutz3 cells, Day 7 differentiated cells [Mutz3-LC] and Day 9 mature cells [mMutz3-LC]. The supernatants were tested for 27 cytokines with respective standards to detect cytokine secretion levels. Basal media samples were utilized as controls and supplementation with growth factors and cytokines viz. GMCSF, TGF-beta1, TNF-alpha, IL-6, IL1β were taken into account in the calculations. Cytokine secretion levels [pg/ml] were converted to [pg/million cells/day] by normalizing with the cell number for each cell stage of differentiation.
Different doses of SA (Salicylic Acid), IE (Isoeugenol), PPD (Paraphenylenediamine) and DNCB (DiNitroChlorobenzene) were topically applied onto a 1 cm^2 nylon disc to Episkin™ in 12 well inserts. The lower chamber consisted of Mutz3-LCs at a density of 250,000 cells/ml. Forty eight (48) hrs post sensitization, cells were resuspended in 1 ml fresh maturation media, supernatants were collected for subsequent analysis and cell count was performed. […]

For data set [2] the following is noted: stated as known property of the chemical; cited from earlier work.

For `O=C(O)c1ccccc1O`, the “cytokine profile induced in skin tissues (PCA, FIG. 11)” value in data set [1] is on record as “do not induce distinct cytokine profiles”. For the same compound, the skin sensitizer class entry in data set [2] is recorded as “non-sensitizing irritant”.
In the case of `CC=Cc1ccc(O)c(OC)c1` [isoeugenol], the “cytokine profile induced in skin tissues (PCA, FIG. 11)” value in data set [1] is “do not induce distinct cytokine profiles”. Further, in data set [2], the skin sensitizer class entry was “strong sensitizer”.

Source of the values: patent US20140213466A1, “HIGH-THROUGHPUT ASSESSMENT METHOD FOR CONTACT HYPERSENSITIVITY” (Rutgers, The State University of New Jersey, priority 2010, published 2014).
